Results reported in patent US12145911B2, “Inhibitors of cysteine proteases and methods of use thereof” (priority 2020, dated 2024).

Experiments:
[1] = biological target: COVID-19 (nCoV-2019, SARS-CoV2) Mpro (Severe acute respiratory syndrome coronavirus 2, UniProt P0DTD1); test: SARS-CoV2 Mpro enzymatic assay; type: biochemical; details: 25 nM Mpro, 25 μM substrate
[2] = biological target: T1, 229E Mpro (Human coronavirus 229E, UniProt P0C6X1); test: 229E Mpro assay (Table 3); type: biochemical, Human Coronavirus (HCov) 229E
T1 construct: Mpro
Protocol: Compounds are assayed using standard methods to assess compound activity and IC50. […] The assay buffer contains 20 mM of Tris-HCl (pH 7.3), 100 mM of NaCl, 1 mM of EDTA, 5 mM of TCEP and 0.1% BSA.
The compounds are added to an assay plate.
IC50 values of compounds are calculated with the GraphPad Prism software using the nonlinear regression model of log(inhibitor) vs. response—Variable slope (four parameters). The inhibition activity is calculated using the formula below, IC50 values is calculated using the Inhibition % data. Inhibition %=[(Sample−Average ZPE)/(Average HPE−Average ZPE)]*100%^# • ^#HEP: Hundred percent effect controls. […] Containing enzyme+substrate, no compound. • Sample: Compound activity testing wells. Containing compound+enzyme+substrate. • BG: Compound background control wells. Containing compound+substrate, no enzyme.

[3] = system: HCoV 229E; test: HCoV 229E cytopathic effect (CPE) assay, CellTiter Glo; type: cell-based, Human Coronavirus (HCov) 229E; details: protection from virus-induced CPE
Protocol: The antiviral activity of compounds is calculated based on the protection of the virus-induced CPE at each concentration normalized by the virus control.
Reagents and instruments used in this assay include luminescent cell viability assay kit CellTiter Glo (Promega) and Microplate Reader Synergy2 (BioTek).
Cytopathic effect (CPE) is measured by CellTiter Glo following the manufacturer's manual. The antiviral activity of compounds is calculated based on the protection of the virus-induced CPE at each concentration normalized by the virus control.

[4] = system: Cell viability

T1 sequence (P0C6X1 2966-3267): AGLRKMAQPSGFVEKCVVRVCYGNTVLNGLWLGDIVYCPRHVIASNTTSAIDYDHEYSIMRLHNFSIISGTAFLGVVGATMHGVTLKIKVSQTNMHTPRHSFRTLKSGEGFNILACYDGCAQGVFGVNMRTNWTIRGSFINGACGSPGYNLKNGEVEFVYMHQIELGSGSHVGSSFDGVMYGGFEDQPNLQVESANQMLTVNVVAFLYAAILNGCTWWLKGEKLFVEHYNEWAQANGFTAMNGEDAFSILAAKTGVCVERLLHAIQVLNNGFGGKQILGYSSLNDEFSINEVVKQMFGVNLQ

Compound | IC50 [1] [nM] | EC50 [2] [nM] | other results
COC(=O)NS(=O)(=O)n1nccc1C(=O)NC(CC1CC1)C(=O)NC(C#N)CC1CCCNC1=O (single isomer, unassigned) [787A (Isomer 2)] | < 2000 | 2000 to 10000 | 
Cc1cc(C(=O)N[C@H]2CC[C@@H]3SC[C@@H](C(=O)N[C@H](C#N)C[C@@H]4CCNC4=O)N3C2=O)no1 [Compound 459, N-((3R,6S,8aS)-3-(((S)-1-cyano-2-((S)-2-oxopyrrolidin-3-yl)ethyl)carbamoyl)-5-oxohexahydro-2H-thiazolo[3,2-a]pyridin-6-yl)-5-methylisoxazole-3-carboxamide] |  | > 30000 | 
N#C[C@H](C[C@@H]1CCCNC1=O)NC(=O)[C@@H]1CC2(CN1C(=O)c1cc3cccc(Cl)c3[nH]1)CC(F)(F)C2 (single isomer, unassigned) [743 (Isomer 1)] | > 30000 | > 30000 | 
COc1cccc2[nH]c(C(=O)N3CC4(C[C@H]3C(=O)N[C@H](C#N)C[C@@H]3CCCNC3=O)CC(F)(F)C4)cc12 (single isomer, unassigned) [723 (Isomer 1)] | 10000 to 30000 | 10000 to 30000 | 
N#C[C@H](C[C@@H]1CCCNC1=O)NC(=O)[C@@H]1CC2(CN1C(=O)c1cc3cccc(Cl)c3[nH]1)CC(F)(F)C2 (single isomer, unassigned) [743 (Isomer 2)] | < 2000 | < 2000 | 
CC1(C)CC(C[C@@H](C#N)NC(=O)[C@H](CC2CC2)NC(=O)c2cc3cccc(Cl)c3[nH]2)C(=O)N1 (single isomer, unassigned) [1053 (Isomer 3)] |  | 2000 to 10000 | 
N#C[C@H](C[C@@H]1CCNC1=O)NC(=O)[C@H](CC1CC1)NC(=O)c1cc2c(Cl)ccc(Cl)c2[nH]1 [Compound 691, 4,7-dichloro-N-[(1S)-2-[[(1S)-1-cyano-2-[(3S)-2-oxopyrrolidin-3-yl]ethyl]amino]-1-(cyclopropylmethyl)-2-oxo-ethyl]-1H-indole-2-carboxamide] |  | < 2000 | 
CC1(C)CC(CC(C#N)NC(=O)C(CC2CC2)NC(=O)c2cc3cccc(Cl)c3[nH]2)C(=O)N1 (single isomer, unassigned) [1053 (Isomer 4)] |  | < 2000 | 
N#C[C@H](C[C@@H]1CCNC1=O)NC(=O)[C@H](CC1CC1)NC(=O)c1nc2c(Cl)cc(Cl)cc2[nH]1 [Compound 525, 4,6-dichloro-N-[(1S)-2-[[(1S)-1-cyano-2-[(3S)-2-oxopyrrolidin-3-yl]ethyl]amino]-1-(cyclopropylmethyl)-2-oxo-ethyl]-1H-benzimidazole-2-carboxamide] |  | < 2000 | 
COc1cccc2[nH]c(C(=O)NC(CC(C)(F)F)C(=O)NC(C#N)CC3CCNC3=O)cc12 (single isomer, unassigned) [497 (Isomer 2)] |  | < 2000 | EC50 [3]: < 2000 nM
COc1cc(Cl)c2[nH]c(C(=O)N[C@@H](CC3CC3)C(=O)N[C@H](C#N)C[C@@H]3CCNC3=O)cc2c1 [Compound 695, 7-chloro-N-[(1S)-2-[[(1S)-1-cyano-2-[(3S)-2-oxopyrrolidin-3-yl]ethyl]amino]-1-(cyclopropylmethyl)-2-oxo-ethyl]-5-methoxy-1H-indole-2-carboxamide] |  | < 2000 | 
COc1cccc2[nH]c(C(=O)N3CC4(C[C@H]3C(=O)N[C@H](C#N)C[C@@H]3CCCNC3=O)CC(F)(F)C4)cc12 (single isomer, unassigned) [723 (Isomer 2)] | < 2000 | < 2000 | 
N#C[C@H](C[C@@H]1CCNC1=O)NC(=O)[C@H](CC1CC1)NC(=O)c1cc2ccc(Cl)cc2[nH]1 [Compound 529, 6-chloro-N-[(1S)-2-[[(1S)-1-cyano-2-[(3S)-2-oxopyrrolidin-3-yl]ethyl]amino]-1-(cyclopropylmethyl)-2-oxo-ethyl]-1H-indole-2-carboxamide] |  | < 2000 | 
COc1cccc2[nH]c(C(=O)N[C@H](CC3CC3)C(=O)N[C@H](C#N)C[C@@H]3CCC(C)(C)NC3=O)cc12 (single isomer, unassigned; isomer 1) [787A (Isomer 1)] |  | 2000 to 10000 | 
N#C[C@H](C[C@@H]1CCNC1=O)NC(=O)[C@@H]1CS[C@H]2CC[C@H](NC(=O)OCc3ccccc3)C(=O)N21 [Compound 457, Benzyl((3R,6S,8aS)-3-(((S)-1-cyano-2-((S)-2-oxopyrrolidin-3-yl)ethyl)carbamoyl)-5-oxohexahydro-2H-thiazolo[3,2-a]pyridin-6-yl)carbamate] |  | > 30000 | 
CC1(C)CCC(CC(C#N)NC(=O)[C@H](CC2CC2)NC(=O)c2cc3cccc(Cl)c3[nH]2)C(=O)N1 (single isomer, unassigned) [749A (Isomer 1)] | < 2000 |  | 
CC(C)CC(NC(=O)c1nc2ncccc2[nH]1)C(=O)NC(C#N)CC1CCNC1=O (single isomer, unassigned) [130 (Isomer 1)] |  |  | CC50 [4]: > 30000 nM
